In patent US9717681B2, “Formulations containing substituted imidazole derivatives” (R.P. Scherer Technologies, LLC, priority 2002, dated 2017):

Legend:
[1] = Protocol A: fipamezole administered orally in solution to healthy volunteers, pharmacokinetics, safety and tolerability; format: in vivo, human; details: for Cmax / Tmax / AUC(0-t) / half-life: male, human, plasma; for Cmax: po, human plasma
Experimental: (§1) Fipamezole was administered orally in solution in increasing doses (0.5, 1, 3, 9, 18, 30 and 60 mg) to healthy volunteers (Caucasian males, 18-35 years old, 60-90 kg body weight). Blood samples were taken at intervals for pharmacokinetic evaluation up to 24 hours after each dose. Concentrations of fipamezole in plasma were measured with HPLC-MS/MS. Safety and tolerability were evaluated by standard safety laboratory determinations, ECG recordings, blood pressure and heart rate measurements and by adverse event questioning. The pharmacokinetics were evaluated using the Topfit 2.0 pharmacokinetic program. Cmax and tmax were read from the concentration vs. time curves and the apparent elimination phase half lives from the semi-logarithmic terminal part of the curve. AUC values were calculated both for infinity and up to the last measurable data point.

[2] = Protocol B: fipamezole administered as buccal spray to healthy volunteers, pharmacokinetics and tolerability; format: in vivo, human; details: for Cmax: human plasma
Experimental: as §1, with “point. […] The protocol used was substantially as for protocol A, except administration was by buccal spray (0.75, 1.5, 3, 7.5, 15, 30, 60 and 90 mg single doses).” for “point.”

[3] = Pharmacokinetics of fast dispersing dosage form in dogs; format: in vivo, beagle dogs
Experimental: In this study fipamezole was administered orally as a fast dispersing tablet (formulation as for Example 3 above) (20 mg/kg) via the buccal cavity to pure bred beagle dogs (1 male and 1 female). Throughout the study (8 days, and 4 days pre-study) the subjects were monitored for viability, changes in behaviour, reaction to treatment and ill-health. In addition, body weight and food consumption were recorded. Blood was collected at 10, 20, 30 and 45 minutes and 1, 1.25, 1.5, 2, 2.5, 3, 4 and 8 hours after administration for plasma level analysis (LC/MS/MS method).

[4] = beagle dogs, fast dispersing tablet (formulation as Example 3), 20 mg/kg via buccal cavity

SMILES: CCC1(c2c[nH]cn2)Cc2ccc(F)cc2C1.Cl (centres unmarked) [fipamezole, 4-(2-ethyl-5-fluoro-indan-2-yl)-1H-imidazole, hydrochloride salt]
- Cmax ([1]; 0.5 mg): 0.05 ng/mL
- Cmax ([1]; 1 mg): 0.08 ng/mL
- Cmax ([1]; 3 mg): 0.23 ng/mL
- Cmax ([1]; 9 mg): 1.09 ng/mL
- Cmax ([1]; 18 mg): 1.31 ng/mL
- Cmax ([1]; 60 mg): ~2 ng/mL
- Tmax ([1]; oral solution, dose 0.5 mg): 0.88 h
- AUC(0-t) ([1]; oral solution, dose 1 mg): 0.1 ng·h/mL
- Tmax ([1]; oral solution, dose 1 mg): 0.83 h
- AUC(0-t) ([1]; oral solution, dose 3 mg): 0.3 ng·h/mL
- Tmax ([1]; oral solution, dose 3 mg): 0.67 h
- AUC(0-t) ([1]; oral solution, dose 9 mg): 4.2 ng·h/mL
- Tmax ([1]; oral solution, dose 9 mg): 0.67 h
- half-life ([1]; oral solution, dose 9 mg): 2.2 h
- AUC(0-t) ([1]; oral solution, dose 18 mg): 6 ng·h/mL
- Tmax ([1]; oral solution, dose 18 mg): 0.83 h
- half-life ([1]; oral solution, dose 18 mg): 2.4 h
- AUC(0-t) ([1]; oral solution, dose 30 mg): 6.8 ng·h/mL
- Tmax ([1]; oral solution, dose 30 mg): 1.25 h
- half-life ([1]; oral solution, dose 30 mg): 3.1 h
- AUC(0-t) ([1]; oral solution, dose 60 mg): 8.2 ng·h/mL
- Tmax ([1]; oral solution, dose 60 mg): 1.06 h
- half-life ([1]; oral solution, dose 60 mg): 1.8 h
- Level of absorption vs dose ([1]; oral solution, 0.5-60 mg): not dose-proportional
- Safety and tolerability ([1]; oral solution, 0.5-60 mg, healthy volunteers): safe and well tolerated
- Absorption from the buccal mucosa into systemic circulation [2]: rapidly absorbed in a dose-dependent manner
- Relation between dose and Cmax and AUC0-inf values [2]: linear correlation
- Tolerability ([2]; all doses 0.75-90 mg single doses): well tolerated
- Tmax ([2]; dose 0.75 mg): 0.72 h
- Tmax ([2]; dose 1.5 mg): 0.72 h
- Tmax ([2]; dose 7.5 mg): 0.72 h
- Tmax ([2]; dose 15 mg): 0.72 h
- Tmax ([2]; dose 30 mg): 0.72 h
- Cmax ([2]; dose 30 mg): 49.23 ng/mL
- Adverse effects seen after administration ([2]; frequently seen after administration): buccal erythema and whitening
- Cmax ([2]; male, dose 0.75 mg, read-out: Cmax): 1.53 ng/mL
- Cmax ([2]; male, dose 1.5 mg, read-out: Cmax): 3.13 ng/mL
- Cmax ([2]; male, dose 3 mg, read-out: Cmax): 4.76 ng/mL
- Cmax ([2]; male, dose 7.5 mg, read-out: Cmax): 13 ng/mL
- Cmax ([2]; male, dose 15 mg, read-out: Cmax): 25.9 ng/mL
- Cmax ([2]; male, dose 60 mg, read-out: Cmax): 92.9 ng/mL
- Cmax ([2]; male, dose 90 mg, read-out: Cmax): 172 ng/mL
- AUC(0-t) ([2]; male, human, plasma, dose 0.75 mg): 4.6 ng·h/mL
- half-life ([2]; male, human, plasma, dose 0.75 mg, read-out: t1/2 (converted)): 1.47 h
- AUC(0-t) ([2]; male, human, plasma, dose 1.5 mg): 9.99 ng·h/mL
- half-life ([2]; male, human, plasma, dose 1.5 mg, read-out: t1/2 (converted)): 1.65 h
- AUC(0-t) ([2]; male, human, plasma, dose 3 mg): 15.4 ng·h/mL
- half-life ([2]; male, human, plasma, dose 3 mg, read-out: t1/2 (converted)): 1.6 h
- Tmax ([2]; male, human, plasma, dose 3 mg, read-out: tmax): 0.78 h
- AUC(0-t) ([2]; male, human, plasma, dose 7.5 mg): 40.8 ng·h/mL
- half-life ([2]; male, human, plasma, dose 7.5 mg, read-out: t1/2 (converted)): 1.78 h
- AUC(0-t) ([2]; male, human, plasma, dose 15 mg): 84.1 ng·h/mL
- half-life ([2]; male, human, plasma, dose 15 mg, read-out: t1/2 (converted)): 1.97 h
- AUC(0-t) ([2]; male, human, plasma, dose 30 mg): 157 ng·h/mL
- half-life ([2]; male, human, plasma, dose 30 mg, read-out: t1/2 (converted)): 2.12 h
- AUC(0-t) ([2]; male, human, plasma, dose 60 mg): 231 ng·h/mL
- half-life ([2]; male, human, plasma, dose 60 mg, read-out: t1/2 (converted)): 3 h
- Tmax ([2]; male, human, plasma, dose 60 mg, read-out: tmax): 0.46 h
- AUC(0-t) ([2]; male, human, plasma, dose 90 mg): 467 ng·h/mL
- half-life ([2]; male, human, plasma, dose 90 mg, read-out: t1/2 (converted)): 3.16 h
- Tmax ([2]; male, human, plasma, dose 90 mg, read-out: tmax): 0.53 h
- half-life ([2]; male, human, plasma, range over doses, longer times at larger doses, read-out: Apparent elimination phase half life): 1.2 to 3.5 h
- Absorption [3, 4]: rapidly absorbed
- Time to peak plasma concentration [3, 4]: ≤ 10 min
- Effect on body weight ([3]; beagle dogs, fast dispersing tablet, 20 mg/kg): no adverse effect
- Food consumption on the day of administration ([3]; beagle dogs, fast dispersing tablet, 20 mg/kg, probably due to frequent blood collection): low
- Adverse clinical signs ([3]; female beagle dog, fast dispersing tablet (formulation as Example 3), 20 mg/kg via buccal cavity): No adverse clinical signs
- Adverse clinical signs ([3]; male beagle dog, fast dispersing tablet (formulation as Example 3), 20 mg/kg via buccal cavity): elevated pulse rate
